Assay results: patent publication US8987250B2 (Gilead Sciences, Inc., priority 2012, dated 2015)

test system: HIV-IIIb; assay: Test A: Antiviral Assay in MT4 Cells; assay type: cell-based; conditions: Human immunodeficiency virus 1, IIIB, MT4, 120 h, Table 1; MT-4 cells infected with HIV-IIIb, 5 days of incubation, CellTiter-Glo; read-out: EC50
Experimental: The antiviral properties of a compound of the invention may be determined using Test A described below.
Test A: Antiviral Assay in MT4 Cells
For the antiviral assay utilizing MT-4 cells, 0.4 μL of […] test concentration of 3-fold serially diluted compound in DMSO was added to 40 μL of cell growth medium (RPMI 1640, 10% FBS, 1% penicilline/Streptomycine, 1% L-Glutamine, 1% HEPES) in each well of 384-well assay plates (10 concentrations) in quadruplicate.
One mL aliquots of 2×10e6 MT-4 cells were pre-infected for 1 and 3 hours respectively, @ 37° C. with 25 uL (MT4) or of either cell growth medium (mock-infected) or a fresh 1:250 dilution of an HIV-IIIb concentrated ABI stock (0.004m.o.i. for MT4 cells). Infected and uninfected cells were diluted in cell growth medium and 35 uL of 2000 (for MT4) cells was added to each well of the assay plates.
Assay plates were then incubated in a 37° C. incubator. After 5 days of incubation, […] of 2× concentrated CellTiter-Glo™ Reagent (catalog #G7573, Promega Biosciences, Inc., Madison, Wis.) was added to each well of the assay plate. Cell lysis was carried out by incubating at room temperature for 2-3 min and then chemiluminescence was read using the Envision reader (PerkinElmer). […]

Row | SMILES | EC50 [nM]
1 | Cc1cc2nc(-c3cc(-c4ccc5c(cnn5C)c4)ncn3)sc2c(-c2ccc(Cl)cc2)c1[C@H](OC(C)(C)C)C(=O)O [Compound 130] | 100
2 | Cc1cc2nc(-c3cccc(-c4ccc5c(cnn5C)c4)c3)sc2c(-c2ccc3c(c2)OC(C)O3)c1[C@H](OC(C)(C)C)C(=O)O (stereo partly drawn) [Compound 119, (2S)-2-tert-butoxy-2-(5-methyl-2-(3-(1-methyl-1H-indazol-5-yl)phenyl)-7-(2-methylbenzo[d][1,3]dioxol-5-yl)benzo[d]thiazol-6-yl)acetic acid] | 237
3 | Cc1cc2nc(-c3cnc4c(cnn4C)c3)sc2c(-c2ccc(Cl)cc2)c1[C@H](OC(C)(C)C)C(=O)O [Compound 116, (S)-2-tert-butoxy-2-(7-(4-chlorophenyl)-5-methyl-2-(1-methyl-1H-pyrazolo[3,4-b]pyridin-5-yl)benzo[d]thiazol-6-yl)acetic acid] | 19

More lines, now with the values ahead:

Row | EC50 [nM] | SMILES
4 | 3230 | Cc1cc2nc(-c3ccnc(-c4cnc(O)nc4)c3)sc2c(-c2ccc(Cl)cc2)c1[C@H](OC(C)(C)C)C(=O)O [Compound 134]
5 | 2700 | Cc1cc2nc(-c3ccnc(-c4cncc(C(=O)O)c4)c3)sc2c(-c2ccc(Cl)cc2)c1[C@H](OC(C)(C)C)C(=O)O [Compound 148]
6 | 28 | Cc1cc2nc(-c3cnc4[nH]cc(C)c4c3)sc2c(-c2ccc(Cl)cc2)c1[C@H](OC(C)(C)C)C(=O)O [Compound 112]

same assay, conditions: Human immunodeficiency virus 1, IIIB, MT4, 120 h, Table 2; MT-4 cells infected with HIV-IIIb, 5 days of incubation, CellTiter-Glo; read-out: EC50

Row | SMILES | EC50 [nM]
7 | Cc1cc2nc(-c3ccnc(N4CCN(C(C)C)CC4C)n3)sc2c(-c2ccc(Cl)cc2)c1[C@H](OC(C)(C)C)C(=O)O (stereo in doubt) [Compound 467, (S)-2-tert-butoxy-2-(7-(4-chlorophenyl)-2-(2-((R)-4-isopropyl-2-methylpiperazin-1-yl)pyrimidin-4-yl)-5-methylbenzo[d]thiazol-6-yl)acetic acid] | 5
8 | Cc1cc2nc(-c3c4cnccc4nn3C)sc2c(-c2ccc(Cl)cc2)c1[C@H](OC(C)(C)C)C(=O)O [Compound 362] | 21
9 | Cc1cc2nc(-c3ccnc(-c4nn(C)c5ccccc45)c3)sc2c(-c2ccc(Cl)cc2)c1[C@H](OC(C)(C)C)C(=O)O [Compound 190, (S)-2-tert-butoxy-2-(7-(4-chlorophenyl)-5-methyl-2-(2-(1-methyl-1H-indazol-3-yl)pyridin-4-yl)benzo[d]thiazol-6-yl)acetic acid] | 112
10 | CCc1cnn2cc(-c3cc(-c4nc5cc(C)c([C@H](OC(C)(C)C)C(=O)O)c(-c6ccc(Cl)cc6)c5s4)ccn3)cnc12 [Compound 226, (S)-2-tert-butoxy-2-(7-(4-chlorophenyl)-2-(2-(3-ethylpyrazolo[1,5-a]pyrimidin-6-yl)pyridin-4-yl)-5-methylbenzo[d]thiazol-6-yl)acetic acid] | 36
11 | Cc1cc2nc(N3CCNC(c4ccc5c(cnn5C)c4)C3)sc2c(-c2ccc(Cl)cc2)c1[C@H](OC(C)(C)C)C(=O)O (stereo partly drawn) [Compound 277, (2S)-2-tert-butoxy-2-(7-(4-chlorophenyl)-5-methyl-2-(3-(1-methyl-1H-indazol-5-yl)piperazin-1-yl)benzo[d]thiazol-6-yl)acetic acid] | 26
12 | Cc1cc2nc(-c3nc(N4CCN(C(C)C)CC4)cs3)sc2c(-c2ccc(Cl)cc2)c1[C@H](OC(C)(C)C)C(=O)O [Compound 246, (S)-2-tert-butoxy-2-(7-(4-chlorophenyl)-2-(4-(4-isopropylpiperazin-1-yl)thiazol-2-yl)-5-methylbenzo[d]thiazol-6-yl)acetic acid] | 9
13 | Cc1cc2nc(-c3ccc4nc(C)n([C@@H]5CCN(C)C5)c4c3)sc2c(-c2ccc(Cl)cc2)c1[C@H](OC(C)(C)C)C(=O)O [Compound 296, (S)-2-tert-butoxy-2-(7-(4-chlorophenyl)-5-methyl-2-(2-methyl-1-((R)-1-methylpyrrolidin-3-yl)-1H-benzo[d]imidazol-6-yl)benzo[d]thiazol-6-yl)acetic acid] | 13
14 | Cc1cc2nc(-c3ccc4c(c3)CN(C)C4=O)sc2c(-c2ccc(Cl)cc2)c1[C@H](OC(C)(C)C)C(=O)O [Compound 248, (S)-2-tert-butoxy-2-(7-(4-chlorophenyl)-5-methyl-2-(2-methyl-1-oxoisoindolin-5-yl)benzo[d]thiazol-6-yl)acetic acid] | 13
15 | COc1ccc2ccc(-c3cc(-c4nc5cc(C)c([C@H](OC(C)(C)C)C(=O)O)c(-c6ccc(Cl)cc6)c5s4)ccn3)cc2n1 [Compound 451] | 86
16 | Cc1cc2nc(N3CCc4cnccc4C3)sc2c(-c2ccc(Cl)cc2)c1[C@H](OC(C)(C)C)C(=O)O [Compound 435] | 39
17 | Cc1cc2nc(N3CCc4cccnc4C3)sc2c(-c2ccc(Cl)cc2)c1[C@H](OC(C)(C)C)C(=O)O [Compound 433] | 38
18 | CCn1ncc2cc(-c3cc(-c4nc5cc(C)c([C@H](OC(C)(C)C)C(=O)O)c(-c6ccc(Cl)cc6)c5s4)ccn3)ccc21 [Compound 174, (S)-2-tert-butoxy-2-(7-(4-chlorophenyl)-2-(2-(1-ethyl-1H-indazol-5-yl)pyridin-4-yl)-5-methylbenzo[d]thiazol-6-yl)acetic acid] | 26
19 | Cc1cc2nc(N3CC[C@@H]4CCCC[C@@H]4C3)sc2c(-c2ccc(Cl)cc2)c1[C@H](OC(C)(C)C)C(=O)O [Compound 437] | 309
20 | Cc1cc2nc(-c3ccnc(-c4ccc5c(c4)nnn5C)c3)sc2c(-c2ccc(Cl)cc2)c1[C@H](OC(C)(C)C)C(=O)O [Compound 407] | 14
21 | CCN1CCN(c2nccc(-c3nc4cc(C)c([C@H](OC(C)(C)C)C(=O)O)c(-c5ccc(Cl)cc5)c4s3)n2)CC1 [Compound 475, (S)-2-tert-butoxy-2-(7-(4-chlorophenyl)-2-(2-(4-ethylpiperazin-1-yl)pyrimidin-4-yl)-5-methylbenzo[d]thiazol-6-yl)acetic acid] | 6
22 | Cc1cc2nc(-c3ccnc(-n4ccn5cccc5c4=O)c3)sc2c(-c2ccc(Cl)cc2)c1[C@H](OC(C)(C)C)C(=O)O [Compound 460] | 31
23 | CCCn1ncc2cc(-c3cc(-c4nc5cc(C)c([C@H](OC(C)(C)C)C(=O)O)c(-c6ccc(Cl)cc6)c5s4)ccn3)ccc21 [Compound 373] | 37
24 | Cc1cc2nc(-c3ccc(-c4cnn(C)c4C)cc3)sc2c(-c2ccc(Cl)cc2)c1[C@H](OC(C)(C)C)C(=O)O [Compound 204, (S)-2-tert-butoxy-2-(7-(4-chlorophenyl)-2-(4-(1,5-dimethyl-1H-pyrazol-4-yl)phenyl)-5-methylbenzo[d]thiazol-6-yl)acetic acid] | 155
25 | Cc1cc2cc(-c3cc(-c4nc5cc(C)c([C@H](OC(C)(C)C)C(=O)O)c(-c6ccc(Cl)cc6)c5s4)ccn3)cnc2[nH]1 [Compound 380] | 25
26 | Cc1cc2nc(-c3ccnc(-c4ccc5c(c4)N(C)CCO5)c3)sc2c(-c2ccc(Cl)cc2)c1[C@H](OC(C)(C)C)C(=O)O [Compound 404] | 41
27 | Cc1cc2nc(-c3ccnc(-c4cnc5ncn(C)c5c4)c3)sc2c(-c2ccc(Cl)cc2)c1[C@H](OC(C)(C)C)C(=O)O [Compound 406] | 149
28 | Cc1cc2nc(-c3ccnc(-c4ccc5c(c4)N(C)CC5)c3)sc2c(-c2ccc(Cl)cc2)c1[C@H](OC(C)(C)C)C(=O)O [Compound 399] | 43
29 | Cc1cc2nc(-c3ccnc(N4CCC(C)(O)CC4)n3)sc2c(-c2ccc(Cl)cc2)c1[C@H](OC(C)(C)C)C(=O)O [Compound 332] | 5
30 | Cc1cc2nc(-c3ccnc(-c4ccc5nn(C(F)F)cc5c4)c3)sc2c(-c2ccc(Cl)cc2)c1[C@H](OC(C)(C)C)C(=O)O [Compound 176, (S)-2-tert-butoxy-2-(7-(4-chlorophenyl)-2-(2-(2-(difluoromethyl)-2H-indazol-5-yl)pyridin-4-yl)-5-methylbenzo[d]thiazol-6-yl)acetic acid] | 18
31 | Cc1cc2nc(-c3ccnc(N4CCN(C(C)C(F)(F)F)CC4)n3)sc2c(-c2ccc(Cl)cc2)c1[C@H](OC(C)(C)C)C(=O)O (stereo partly drawn) [Compound 474, (2S)-2-tert-butoxy-2-(7-(4-chlorophenyl)-5-methyl-2-(2-(4-((2R/2S)-1,1,1-trifluoropropan-2-yl)piperazin-1-yl)pyrimidin-4-yl)benzo[d]thiazol-6-yl)acetic acid] | 40
32 | Cc1cc2nc(-c3ccnc(-c4ccc5c(c4)CC(=O)N5C)c3)sc2c(-c2ccc(Cl)cc2)c1[C@H](OC(C)(C)C)C(=O)O [Compound 237, (S)-2-tert-butoxy-2-(7-(4-chlorophenyl)-5-methyl-2-(2-(1-methyl-2-oxoindolin-5-yl)pyridin-4-yl)benzo[d]thiazol-6-yl)acetic acid] | 10
33 | Cc1cc2nc(-c3ccnc(N4CC[C@@H](N(C)C)C4)n3)sc2c(-c2ccc(Cl)cc2)c1[C@H](OC(C)(C)C)C(=O)O [Compound 479, (S)-2-tert-butoxy-2-(7-(4-chlorophenyl)-2-(2-((R)-3-(dimethylamino)pyrrolidin-1-yl)pyrimidin-4-yl)-5-methylbenzo[d]thiazol-6-yl)acetic acid] | 4
34 | Cc1cc2nc(-c3ccnc(N4Cc5ccncc5C4=O)c3)sc2c(-c2ccc(Cl)cc2)c1[C@H](OC(C)(C)C)C(=O)O [Compound 241, (S)-2-tert-butoxy-2-(7-(4-chlorophenyl)-5-methyl-2-(2-(3-oxo-1H-pyrrolo[3,4-c]pyridin-2(3H)-yl)pyridin-4-yl)benzo[d]thiazol-6-yl)acetic acid] | 3
